Patent publication US20260130933A1, “PHARMACEUTICAL COMPOSITION FOR PREVENTION OR TREATMENT OF NEPHROPATHY AND/OR DIABETES MELLITUS, COMPRISING ENAVOGLIFLOZIN” (DAEWOONG PHARMACEUTICAL CO., LTD., priority 2022, published 2026)

Test: Example 3: phase 3 trial, enavogliflozin 0.3 mg vs dapagliflozin 10 mg once a day for 24 weeks added to metformin and gemigliptin in patients with type 2 diabetes (same endpoints, rescue drug)
Type: in vivo, human
Settings: week 18
Protocol: 1) when Metformin (≥1,000 mg/Day) was Administered at a Constant Dose for at Least 8 Weeks Prior to Pre-Visit (Pre-Screening) • Metformin (≥1,000 mg/day) and gemigliptin (50 mg/day) were co-administered during the 8-week stabilization period. […] 4) when Metformin (≥1,000 mg/Day) and Gemigliptin (50 mg/Day) were Co-Administered at Constant Doses for at Least 8 Weeks Prior to Pre-Visit (Prescreening) • Without a separate stabilization period, Pre-visit (pre-screening) was Visit 1 (screening).
Subjects who met the inclusion/exclusion criteria continued to receive metformin and gemigliptin while receiving a placebo of the clinical trial drug in a single-blind (subject-blinded) state for a 2-week run-in period.
Here, the randomized subjects were stratified according to the administration therapy (co-administration with two or less agents (one or two agents) or three or more agents) of a conventional hypoglycemic agent (before washout of another hypoglycemic agent) within 24 weeks prior to obtaining written informed consent and by an HbA1c value (<8% or ≥8%) at Visit 1 (screening) measured in the central laboratory.
The randomized subjects were administered two tablets of the clinical trial drug corresponding to each administration group once a day, and then visited the institution at weeks 6, 12, 18, and 24 during the 24-week administration period to conduct efficacy and safety assessments. In addition, during the clinical trial period, they were instructed to exercise regularly and control their diet without changing their daily life patterns.
• 1) Change in HbA1c at week 24 after administration of clinical trial drug compared to Visit 2 (randomization)
• 1) Change in HbA1c at each time point of weeks 6, 12, and 18 after administration of clinical trial drug compared to Visit 2 (randomization) • 2) Change in FPG at each time point of weeks 6, 12, 18, and 24 after administration of clinical trial drug compared to Visit 2 (randomization) • 3) Proportion of subjects achieving HbA1c<7% at each time point of weeks 6, 12, 18, and 24 after administration of clinical trial drug • 4) Proportion of subjects achieving HbA1c<6.5% at each time point of weeks 6, 12, 18, and 24 after administration of clinical trial drug • 5) Proportion of subjects achieving therapeutic response (HbA1c change (HbA1c at Visit 2—HbA1c at each evaluation time point)>0.5% or HbA1c<7% at each evaluation time point compared to Visit 2 (randomization)) at each time point of weeks 6, 12, 18, and 24 after administration of clinical trial drug • 6) Proportion of subjects achieving therapeutic response (HbA1c change (HbA1c at Visit 2—HbA1c at each evaluation time point)>0.7% or HbA1c<7% at each evaluation time point compared to Visit 2 (randomization)) at each time point of weeks 6, 12, 18, and 24 after administration of clinical trial drug • 7) Proportion of subjects achieving therapeutic response (HbA1c change (HbA1c at Visit 2—HbA1c at each evaluation time point)>1% or HbA1c<7% at each evaluation time point compared to Visit 2 (randomization)) at each time point of weeks 6, 12, 18, and 24 after administration of clinical trial drug

[1] = modified per-protocol set 2, enavogliflozin 0.3 mg, dapagliflozin 10 mg
[2] = per-protocol set, enavogliflozin 0.3 mg vs dapagliflozin 10 mg
[3] = per-protocol set, enavogliflozin 0.3 mg, dapagliflozin 10 mg

OC[C@H]1O[C@@H](c2cc(Cc3ccc(C4CC4)cc3)c(Cl)c3c2CCO3)[C@H](O)[C@@H](O)[C@@H]1O [Enavogliflozin, (2S,3R,4R,5S,6R)-2-(7-chloro-6 (4-cyclopropylbenzyl)-2,3-dihydrobenzofuran-4-yl)-6-(hydroxymethyl)tetrahydro-2H-pyran-3,4,5-triol]
Change from baseline in diastolic blood pressure, Median (modified per-protocol set 2): −5.00 mmHg | Diastolic blood pressure, Mean (modified per-protocol set 2): 72.53 mmHg | Diastolic blood pressure, Median (modified per-protocol set 2): 72.00 mmHg | Change from baseline in systolic blood pressure, ANCOVA LS mean difference (modified per-protocol set 2, enavogliflozin 0.3 mg vs dapagliflozin 10 mg): −1.66 mmHg | Change from baseline in systolic blood pressure, ANCOVA LS mean [1]: −6.82 mmHg | Change from baseline in systolic blood pressure, Mean [1]: −7.37 mmHg | Change from baseline in systolic blood pressure, Median [1]: −7.00 mmHg | Systolic blood pressure, Mean [1]: 119.95 mmHg | Systolic blood pressure, Median [1]: 119.00 mmHg | Adiponectin, Mean (per-protocol set): 7.03 µg/mL | Adiponectin, Median (per-protocol set): 6.26 µg/mL | Change from baseline in HOMA-IR, ANCOVA LS mean (per-protocol set): −1.14 | Change from baseline in HOMA-IR, LS mean difference (enavogliflozin − dapagliflozin) (per-protocol set): −0.13 | Change from baseline in HOMA-IR, Mean (per-protocol set): −1.16 | Change from baseline in HOMA-IR, Median (per-protocol set): −0.82 | Change from baseline in HOMA-β, ANCOVA LS mean (per-protocol set): 5.97 | Change from baseline in HOMA-β, LS mean difference (enavogliflozin − dapagliflozin) (per-protocol set): 1.48 | Change from baseline in HOMA-β, Mean (per-protocol set): 6.09 | Change from baseline in HOMA-β, Median (per-protocol set): 4.10 | Change from baseline in UACR, ANCOVA LS mean (per-protocol set): -11.08 g/kg | Change from baseline in UACR, LS mean difference (enavogliflozin − dapagliflozin) (per-protocol set): -2.18 g/kg | Change from baseline in UACR, Mean (per-protocol set): -12.07 g/kg | Change from baseline in UACR, Median (per-protocol set): -1.50 g/kg | Change from baseline in UGCR, ANCOVA LS mean (per-protocol set): 58.74 mg/mg | Change from baseline in UGCR, LS mean difference (enavogliflozin − dapagliflozin) (per-protocol set): 13.34 mg/mg | Change from baseline in UGCR, Mean (per-protocol set): 57.23 mg/mg | Change from baseline in UGCR, Median (per-protocol set): 54.56 mg/mg | Change from baseline in adiponectin, ANCOVA LS mean (per-protocol set): 0.78 µg/mL | Change from baseline in adiponectin, LS mean difference (enavogliflozin − dapagliflozin) (per-protocol set): 0.42 µg/mL | Change from baseline in adiponectin, Mean (per-protocol set): 0.80 µg/mL | Change from baseline in adiponectin, Median (per-protocol set): 0.60 µg/mL | Change from baseline in leptin, ANCOVA LS mean (per-protocol set): -1.46 ng/mL | Change from baseline in leptin, LS mean difference (enavogliflozin − dapagliflozin) (per-protocol set): -0.40 ng/mL | Change from baseline in leptin, Mean (per-protocol set): -1.63 ng/mL | Change from baseline in leptin, Median (per-protocol set): -0.89 ng/mL | HOMA-IR (insulin resistance), Mean (per-protocol set): 1.74 | HOMA-IR (insulin resistance), Median (per-protocol set): 1.42 | HOMA-β (beta-cell function), Mean (per-protocol set): 49.26 | HOMA-β (beta-cell function), Median (per-protocol set): 40.00 | Leptin, Mean (per-protocol set): 8.87 ng/mL | Leptin, Median (per-protocol set): 5.86 ng/mL | UACR, Mean (per-protocol set): 25.02 g/kg | UACR, Median (per-protocol set): 11.30 g/kg | UGCR, Mean (per-protocol set): 57.96 mg/mg | UGCR, Median (per-protocol set): 54.71 mg/mg | Achieving HbA1c target of <6.5%, odds ratio (logistic regression model) [2]: 1.20 | Achieving HbA1c target of <7%, odds ratio (logistic regression model) [2]: 1.36 | Change from baseline in FPG, ANCOVA LS mean difference [2]: -4.22 mg/dL | Change from baseline in HbA1c, ANCOVA LS mean difference [2]: −0.07 % p | Change from baseline in body weight, ANCOVA LS mean difference [2]: -0.15 kg | Change from baseline in fasting C-peptide, ANCOVA LS mean difference [2]: -0.02 ng/mL | Therapeutic glycemic response 1, odds ratio (logistic regression model) [2]: 1.02 | Therapeutic glycemic response 2, odds ratio (logistic regression model) [2]: 1.09 | Therapeutic glycemic response 3, odds ratio (logistic regression model) [2]: 1.22 | Body weight, Mean [3]: 66.18 kg | Change from baseline in FPG, ANCOVA LS mean [3]: -27.77 mg/dL | Change from baseline in FPG, Mean [3]: -28.00 mg/dL | Change from baseline in FPG, Median [3]: -24.00 mg/dL | Change from baseline in HbA1c, ANCOVA LS mean [3]: −0.83 % p | Change from baseline in HbA1c, Mean [3]: −0.84 % p | Change from baseline in HbA1c, Median [3]: −0.72 % p | Change from baseline in body weight, ANCOVA LS mean [3]: -3.16 kg | Change from baseline in body weight, Mean [3]: -3.10 kg | Change from baseline in body weight, Median [3]: -2.90 kg | Change from baseline in fasting C-peptide, ANCOVA LS mean [3]: -0.08 ng/mL | Change from baseline in fasting C-peptide, Mean [3]: -0.09 ng/mL | Change from baseline in fasting C-peptide, Median [3]: -0.10 ng/mL | FPG, Mean [3]: 111.10 mg/dL | FPG, Median [3]: 109.00 mg/dL | Fasting C-peptide, Mean [3]: 0.64 ng/mL | Fasting C-peptide, Median [3]: 0.60 ng/mL | HbA1c, Mean [3]: 6.95%
